Experimental data published in patent US6720423B2, “Dihydrobenzofuran and dihydrobenzothiophene 2,4-pentadienoic acid derivatives having selective activity for retinoid X (RXR) receptors” (Allergan, Inc., priority 2002, dated 2004).

Legend:
RXRβ [1] = target: T1, RXRβ (UniProt P28704); assay: receptor transactivation assay, RXRβ; type: cell-based; set-up: RXR Trans; other: RXRβ; first entry of cell; conditions: for EC50: first entry of cell, read-out: RXR Trans. EC50 (nM) β; for RXR Trans. β, number in parentheses after EC50: parenthesised number, not defined in the patent
T1 sequence (P28704 1-520): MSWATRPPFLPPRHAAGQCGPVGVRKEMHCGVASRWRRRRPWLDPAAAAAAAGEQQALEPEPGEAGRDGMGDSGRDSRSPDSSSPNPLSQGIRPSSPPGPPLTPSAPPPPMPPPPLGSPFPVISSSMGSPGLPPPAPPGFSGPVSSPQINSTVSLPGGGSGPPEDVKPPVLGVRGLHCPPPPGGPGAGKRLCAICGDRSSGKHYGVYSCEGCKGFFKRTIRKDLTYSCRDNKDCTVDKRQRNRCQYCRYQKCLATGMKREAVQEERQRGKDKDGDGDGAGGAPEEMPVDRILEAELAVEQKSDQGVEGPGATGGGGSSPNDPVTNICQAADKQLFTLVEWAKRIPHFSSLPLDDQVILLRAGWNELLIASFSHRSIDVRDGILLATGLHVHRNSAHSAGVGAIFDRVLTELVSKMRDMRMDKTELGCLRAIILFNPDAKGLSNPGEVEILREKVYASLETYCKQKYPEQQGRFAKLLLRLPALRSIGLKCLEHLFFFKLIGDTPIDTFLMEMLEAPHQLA
From the text: (§1) A holoreceptor transactivation assay and a ligand binding assay which measure the antagonist/agonist like activity of the compounds of the invention, or their ability to bind to the several retinoid receptor subtypes, respectively, are described in published PCT Application No. WO WO93/11755 (particularly on pages 30-33 and 37-41) published on Jun. 24, 1993, the specification of which is also incorporated herein by reference. A detailed experimental procedure for holoreceptor transactivations has been described by Heyman et al. Cell 68, 397-406, (1992); Allegretto et al. J. Biol. Chem. 268, 26625-26633, and Mangelsdorf et al. The Retinoids: Biology, Chemistry and Medicine, pp 319-349, Raven Press Ltd., New York, which are expressly incorporated herein by reference. The results obtained in this assay are expressed in EC50 numbers, as they are also in the chimeric receptor transactivation assay. The results of ligand binding assay are expressed in Kd numbers. (See Cheng et al. Biochemical Pharmacology Vol. 22 pp 3099-3108, expressly incorporated herein by reference.)

RXRβ [2] = target: T1, RXRβ; assay: ligand binding assay, RXRβ; set-up: other: RXRβ; last entry of cell; conditions: last entry of cell, read-out: RXR Bind Ki (nM) β
From the text: as §1

RXRα = target: T2, RXRα (Homo sapiens, UniProt P19793); assay: receptor transactivation assay, RXRα; type: cell-based; conditions: first entry of cell, read-out: RXR Trans. EC50 (nM) α
T2 construct: the only RXRα plasmid printed
T2 sequence (P19793 227-462 limits assumed): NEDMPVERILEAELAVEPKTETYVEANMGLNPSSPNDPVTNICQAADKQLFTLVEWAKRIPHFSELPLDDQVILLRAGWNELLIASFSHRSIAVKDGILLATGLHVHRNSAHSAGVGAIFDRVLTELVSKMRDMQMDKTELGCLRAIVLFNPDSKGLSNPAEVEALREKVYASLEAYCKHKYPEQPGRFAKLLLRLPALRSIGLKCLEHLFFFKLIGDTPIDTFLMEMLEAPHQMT
From the text: as §1

RXRγ = target: T3, RXRγ (UniProt P28705); assay: receptor transactivation assay, RXRγ; type: cell-based; set-up: RXR Trans; other: RXRγ; first entry of cell; conditions: for EC50: first entry of cell, read-out: RXR Trans. EC50 (nM) γ; for RXR Trans. γ, number in parentheses after EC50: parenthesised number, not defined in the patent
T3 sequence (P28705 1-463): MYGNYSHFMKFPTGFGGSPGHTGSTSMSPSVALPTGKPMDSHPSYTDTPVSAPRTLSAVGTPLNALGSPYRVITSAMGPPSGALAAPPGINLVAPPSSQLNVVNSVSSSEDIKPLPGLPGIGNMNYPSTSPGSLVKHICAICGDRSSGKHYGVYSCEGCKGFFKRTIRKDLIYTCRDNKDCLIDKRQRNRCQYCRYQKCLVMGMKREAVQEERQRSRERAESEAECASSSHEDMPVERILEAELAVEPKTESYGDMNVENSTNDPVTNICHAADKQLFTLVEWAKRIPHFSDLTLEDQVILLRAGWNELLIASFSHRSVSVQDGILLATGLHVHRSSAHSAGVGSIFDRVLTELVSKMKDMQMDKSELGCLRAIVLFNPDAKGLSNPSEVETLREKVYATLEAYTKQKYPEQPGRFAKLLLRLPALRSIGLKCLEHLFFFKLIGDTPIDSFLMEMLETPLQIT
From the text: as §1

RARβ = target: T4, RARβ (Homo sapiens, UniProt P10826); assay: ligand binding assay, RARβ; conditions: second entry of cell, read-out: RAR Bind. Ki (nM) β
T4 sequence (P10826 1-455): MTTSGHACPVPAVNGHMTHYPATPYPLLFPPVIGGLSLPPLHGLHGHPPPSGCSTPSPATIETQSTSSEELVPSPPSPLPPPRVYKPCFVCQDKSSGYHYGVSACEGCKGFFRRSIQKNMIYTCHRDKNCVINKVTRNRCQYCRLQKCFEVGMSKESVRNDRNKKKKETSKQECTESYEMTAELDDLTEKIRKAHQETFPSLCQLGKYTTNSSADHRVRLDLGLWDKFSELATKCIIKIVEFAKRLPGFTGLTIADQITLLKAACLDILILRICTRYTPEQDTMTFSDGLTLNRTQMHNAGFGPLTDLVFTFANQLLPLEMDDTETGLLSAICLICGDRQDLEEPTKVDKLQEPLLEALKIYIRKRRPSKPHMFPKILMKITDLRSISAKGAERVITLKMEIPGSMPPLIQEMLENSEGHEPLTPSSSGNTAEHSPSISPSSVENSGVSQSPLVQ
From the text: as §1

EC50 (RXRβ [1]) [nM]	RXR Trans. β, number in parentheses after EC50 (RXRβ [1])	Ki (RXRβ [2]) [nM]	EC50 (RXRα) [nM]	EC50 (RXRγ) [nM]	RXR Trans. γ, number in parentheses after EC50 (RXRγ)	Ki (RARβ) [nM]	SMILES
9.8	106	21.1	1.1	2.7	119	> 10000	CC(/C=C/[C@@H]1C[C@]1(C)c1ccc2c(c1)C(C)(C)CO2)=C\C(=O)O [Compound 2, (6S,7S)-7-[5-(3,3-Dimethyl-2,3-dihydro-benzofuranyl)]-6.7-methano-3-methyl-octa-2E,4E-dienoic Acid]
21	108	74	2.9	4.4	108	> 10000	CC(/C=C/[C@@H]1C[C@]1(C)c1cc(C)c2c(c1)C(C)(C)CO2)=C\C(=O)O [Compound 4, (6S,7S)-7-[5-(3,3,7-Trimethyl-2,3-dihydro-benzofuranyl)]-6,7-methano-3-methyl-octa-2E,4E-dienoic acid]
2.8	75	1.8	0.3	0.56	85	> 30000	CCc1cc([C@@]2(C)C[C@H]2/C=C/C(C)=C/C(=O)O)cc2c1OCC2(C)C [Compound 6]
0.66	110	10.6	0.159	0.23	108	41000	CC(/C=C/[C@@H]1C[C@]1(C)c1cc(C(C)C)c2c(c1)C(C)(C)CO2)=C\C(=O)O [Compound 8, (6S,7S)-7-[5-(3,3-Dimethyl-7-iso-propyl-2,3-dihydro-benzofuranyl)]-6,7-methano-3-methyl-octa-2E,4E-dienoic Acid]
12	90	7.1	0.55	0.78	95	19000	CC(/C=C/[C@@H]1C[C@]1(C)c1cc(C(C)(C)C)c2c(c1)C(C)(C)CO2)=C\C(=O)O [Compound 10, (6S,7S)-7-[5-(3,3-Dimethyl-7-t-butyl-2,3-dihydro-benzofuranyl)]-6,7-methano-3-methyl-octa-2E,4E-dienoic acid]
1.67	93	1.5	0.246	0.42	101	9510	CC(/C=C/[C@@H]1C[C@]1(C)c1cc(CC(C)(C)C)c2c(c1)C(C)(C)CO2)=C\C(=O)O [Compound 12, 5-{(1S,2S) 2-[7-(2,2-Dimethyl-propyl)-3,3-dimethyl-2,3-dihydro-benzofuran-5-yl]-2-methyl-cyclopropyl}-3-methyl-penta-2E,4E-dienoic Acid]
0.515	114	1.1	0.086	0.0973	105	4770	CC(/C=C/[C@@H]1C[C@]1(C)c1cc(Cc2ccccc2)c2c(c1)C(C)(C)CO2)=C\C(=O)O [Compound 14, (6S,7S)-7-[5-(7-Benzyl-3,3-dimethyl-2,3-dihydro-benzofuranyl)]-6,7-methano-3-methyl-octa-2E,4E-dienoic Acid]
1.15	85	1.9	0.215	0.29	83	9290	CC(/C=C/[C@@H]1C[C@]1(C)c1cc(CC2CCCCC2)c2c(c1)C(C)(C)CO2)=C\C(=O)O [Compound 16, (6S,7S)-7-[5-(7-Cyclohexylmethyl-3,3-dimethyl-2,3-dihydro-benzofuranyl)]-6,7-methano-3-methyl-octa-2E,4E-dienoic Acid]
